Test results as given in ChEMBL document CHEMBL1131128, “Structure-based design of cathepsin K inhibitors containing a benzyloxy-substituted benzoyl peptidomimetic” (J Med Chem, 1998).

Key:
[1] = target: T1, Cathepsin K (Homo sapiens) (UniProt P43235); assay: Second order rate constant was measured for the inhibition of Cathepsin K
T1 sequence (whole entry): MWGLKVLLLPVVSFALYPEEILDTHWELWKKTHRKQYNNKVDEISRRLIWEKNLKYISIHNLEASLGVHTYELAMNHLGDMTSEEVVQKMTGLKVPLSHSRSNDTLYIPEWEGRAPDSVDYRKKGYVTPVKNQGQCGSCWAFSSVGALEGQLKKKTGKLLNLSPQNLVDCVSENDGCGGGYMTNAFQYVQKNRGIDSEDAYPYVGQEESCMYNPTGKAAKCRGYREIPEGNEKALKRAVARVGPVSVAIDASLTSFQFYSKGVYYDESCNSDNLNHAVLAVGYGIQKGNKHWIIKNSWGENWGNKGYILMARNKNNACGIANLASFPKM

Cathepsin K = target: T2, Cathepsin K (Homo sapiens, UniProt P43235); assay: Relative binding affinity was measured for Cathepsin K; conditions: read-out: Ki app
T2 sequence (P43235 whole entry): T1 sequence (whole entry)

second-order inhibition rate constant (kobs/[I]) [1] [M⁻¹ s⁻¹] | Ki (Cathepsin K) [nM] | Compound
318000 | 12 | CC(C)C[C@H](NC(=O)OCc1ccccc1)C(=O)NNC(=O)NNC(=O)c1ccccc1OCc1ccccc1
685000 | 1 | CC(C)C[C@H](NC(=O)OCc1ccccc1)C(=O)NNC(=O)NNC(=O)[C@H](C)NC(=O)OCc1ccccc1
38000 | 120 | CC(C)C[C@H](NC(=O)OCc1ccccc1)C(=O)NNC(=O)NNC(=O)c1ccccc1
3.1e+06 | 0.7 | CC(C)C[C@H](NC(=O)OCc1ccccc1)C(=O)NNC(=O)NNC(=O)[C@H](CC(C)C)NC(=O)OCc1ccccc1

Continued, molecule first:

Compound | second-order inhibition rate constant (kobs/[I]) [1] [M⁻¹ s⁻¹] | Ki (Cathepsin K) [nM]
CC(C)C[C@H](NC(=O)OCc1ccccc1)C(=O)NNC(=O)NNC(=O)c1ccc(OCc2ccccc2)cc1 | 44000 | 100
CC[C@H](NC(=O)OCc1ccccc1)C(=O)NNC(=O)NNC(=O)[C@H](CC(C)C)NC(=O)OCc1ccccc1 | 490000 | 3.4
CCC[C@H](NC(=O)OCc1ccccc1)C(=O)NNC(=O)NNC(=O)[C@H](CC(C)C)NC(=O)OCc1ccccc1 | 4e+06 | 0.8
CC(C)C[C@H](NC(=O)OCc1ccccc1)C(=O)NNC(=O)NNC(=O)c1cccc(OCc2ccccc2)c1 | 224000 | 27
